Laboratory results: PMC7747594, “Protease-activated receptor-2 ligands reveal orthosteric and allosteric mechanisms of receptor inhibition” (Communications Biology, 2020)
Where “and” joins values, the source holds several entries; their conditions need not be identical. Identical values can stand only once. One block for each compound: values may come before it.

Tests used:
hPAR2 [1] = biological target: T1, hPAR2 (Homo sapiens, UniProt P55085); experiment: β-arrestin-2 recruitment, agonist mode, U2OS-hPAR2 cells; assay type: cell-based; parameters: agonist response (Fig 2f), individual replicate values: unit not given here
T1 sequence (P55085 26-397): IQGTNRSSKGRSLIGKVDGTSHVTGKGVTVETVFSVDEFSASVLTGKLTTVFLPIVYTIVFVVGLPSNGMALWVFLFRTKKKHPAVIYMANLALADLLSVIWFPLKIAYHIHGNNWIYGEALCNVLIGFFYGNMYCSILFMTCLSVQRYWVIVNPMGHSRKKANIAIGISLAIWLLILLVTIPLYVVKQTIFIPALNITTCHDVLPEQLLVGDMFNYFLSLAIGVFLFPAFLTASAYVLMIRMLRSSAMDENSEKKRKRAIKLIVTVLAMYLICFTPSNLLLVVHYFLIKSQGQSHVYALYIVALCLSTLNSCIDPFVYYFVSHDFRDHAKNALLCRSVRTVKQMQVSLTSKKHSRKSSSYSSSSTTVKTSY

hPAR2 [2] = biological target: T1, hPAR2; experiment: pERK1/2 assay, agonist mode, U2OS-hPAR2 cells; assay type: cell-based; parameters: agonist response (Fig 2e), individual replicate values: unit not given here
[3] = system: PAR2 stabilised receptor (StaR); experiment: Surface plasmon resonance (SPR) binding, single-cycle kinetics
Method: (§1) The SPR binding experiments were performed on a Biacore S200 optical biosensor unit (GE Healthcare) at 30 °C. Sensor chips Series S NTA (Research grade, GE Healthcare) were equilibrated at room temperature prior to use. The running buffer for protein tethering and subsequent ligand binding experiments was 50 mM HEPES, 250 mM NaCl, 0.1% (w/v) LMNG, 0.005% (w/v) CHS, 0.025% (w/v) CHAPS, pH 7.4, if not stated otherwise. The tethering of PAR2 was performed at a flow rate of 5 µl min^−1. The NTA surface was chosen to allow full control of the steric orientation of the tethered protein and was conditioned by a one-minute injection of a 350 mM EDTA solution (pH 8.3) followed by a one-minute injection of running buffer supplemented with 0.5 mM NiCl2. To allow for a covalent tethering after the initial capture step, the conditioned surface was activated for 7 min with 50 mM NHS and 200 mM EDC. This was immediately followed by an injection of PAR2 in running buffer at a concentration of 80–120 µg ml^−1 with a contact time of 5–10 min to achieve the desired densities of 8000–9000 RU. […] Reference surfaces were prepared accordingly, omitting the injection of protein over the activated reference surface. The subsequent binding experiments were all performed at a flow rate of 30 µl min^−1 and by employing the method of single-cycle kinetics. This approach involves the sequential injection of a compound concentration series without regeneration steps. A contact time of 60 s was selected, which was followed by a 30 min dissociation phase to allow for a proper estimation of the dissociation rate constant. Compounds were dissolved in DMSO to 10 mM and a digital dispenser HP D300 (Tecan) was used to set up the compound concentration series using 8 concentrations with a 2-fold dilution pattern. […] Prior to the analysis of compound binding, three running buffer blanks were injected to equilibrate the instrument. The data collection rate was set to 10 Hz and all experiments were repeated at least four times to allow for error estimations. Due to the low DMSO mismatch (maximum 0.1%) introduced by the compound addition, no solvent correction was required. To evaluate compound binding to the PAR-AZ8838 complex, the antagonist AZ8838 was supplemented into the running buffer at a concentration of 50 µM and the instrument was equilibrated for 1 h before performing the single-cycle kinetic study as described above. Similarly, binding of AZ2429 to the PAR-AZ3451 complex was investigated after addition of 1 µM AZ3451 to the running buffer followed by 1 h equilibrium period, while the addition of 10 µM AZ2429 to the running buffer was required to ensure >99% saturation for single-cycle kinetic study of AZ3451 binding to the PAR2-AZ2429 complex.
(§2) Prior to the fitting of the data, the reference-subtracted data was further analysed by subtracting a similar single-cycle kinetic experiment containing only buffer injections in order to correct for injection artefacts, systematic noise and instrument drift. This double-referenced data has been fitted using a simple 1:1 interaction model as described by Karlsson et al.[46] in order to extract kinetic and affinity data. All data were expressed as mean ± s.e.m. and further analysed using GraphPad Prism 8. Statistical differences were assessed using student’s t-tests (two-tailed) for data sets of two and one-way ANOVA for data sets of three. Significance was set at ^+p < 0.05, ^++p < 0.01, ^+++p < 0.001, ^++++p < 0.0001 compared to AZ3451, and *p < 0.05, **p < 0.01, ***p < 0.001, ****p < 0.0001 compared to AZ2429.

[4] = biological target: T2, PAR2 stabilised receptor (StaR) (Homo sapiens, UniProt P55085); experiment: as above
T2 sequence (P55085 55-377): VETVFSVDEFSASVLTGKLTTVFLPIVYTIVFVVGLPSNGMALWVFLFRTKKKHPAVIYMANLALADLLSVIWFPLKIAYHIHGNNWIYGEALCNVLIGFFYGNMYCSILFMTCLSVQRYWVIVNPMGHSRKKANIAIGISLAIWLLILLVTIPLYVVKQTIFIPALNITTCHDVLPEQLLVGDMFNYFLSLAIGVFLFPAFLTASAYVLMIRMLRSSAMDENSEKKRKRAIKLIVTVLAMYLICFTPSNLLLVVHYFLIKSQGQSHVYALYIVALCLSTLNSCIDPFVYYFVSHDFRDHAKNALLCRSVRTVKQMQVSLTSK
Method: as §1, §2

EC50 (hPAR2 [1]; U2OS-hPAR2, mean ± s.e.m., read-out: β-arrestin pEC50 (converted)): 251 nM
EC50 (hPAR2 [2]; U2OS-hPAR2, mean ± s.e.m., read-out: pERK1/2 pEC50 (converted)): 39.8 nM
agonist response (Fig 2e), individual replicate values (hPAR2 [2]; [compound],M -8.33985): 2.5581 and 8.989 and 6.59 and 1.141
association kinetics slower than AZ3451 ([3]; SPR): around 100 fold
dissociation rate decreased relative to AZ3451 ([3]; SPR): 5 fold
weaker affinity than AZ3451 ([3]; SPR): 10 fold
ka ([3]; apo-PAR2, 30 °C): 1.5 ± 0.1 × 10^4 (n = 4) M^−1 s^−1
pKD ([3]; apo-PAR2, 30 °C): 6.89 ± 0.03 (n = 4)
residence time ([3]; apo-PAR2, 30 °C): 523 ± 50 (n = 4) s
SMILES: CNC(=O)[C@H]1CC[C@@H](NC(=O)[C@H](CC2CCCCC2)NC(=O)c2cn(Cc3ccccc3)nn2)c2ccccc21 [AZ2429]
agonist response (Fig 2f), individual replicate values (hPAR2 [1]; [compound],M -4.52288): 136.003 and 128.564 and 133.913 and 56.5764 and 110.418 and 80.4631 and 65.432 and 80.8727 and 70.3477 and 91.7141 and 102.077 and 89.1574
agonist response (Fig 2f), individual replicate values (hPAR2 [1]; [compound],M -5): 131.19 and 120.248 and 136.172 and 56.4288 and 102.534 and 68.8992 and 68.7979 and 70.6147 and 68.8215 and 77.979 and 96.7821 and 92.1516
agonist response (Fig 2f), individual replicate values (hPAR2 [1]; [compound],M -5.47712): 112.303 and 119.541 and 118.68 and 44.4899 and 108.952 and 63.9568 and 68.1752 and 70.9487 and 60.988 and 94.267 and 96.9331 and 92.4234
agonist response (Fig 2f), individual replicate values (hPAR2 [1]; [compound],M -5.95424): 118.57 and 119.322 and 126.112 and 66.9594 and 124.296 and 94.3698 and 67.5375 and 74.2944 and 72.0498 and 104.83 and 109.824 and 109.97
agonist response (Fig 2f), individual replicate values (hPAR2 [1]; [compound],M -6.43136): 125.477 and 105.411 and 104.73 and 109.603 and 104.761 and 111.037 and 54.7204 and 64.3421 and 52.5276 and 82.0218 and 82.1308 and 78.7213
agonist response (Fig 2f), individual replicate values (hPAR2 [1]; [compound],M -6.90849): 100.424 and 92.4091 and 99.838 and 93.2711 and 86.5209 and 104.138 and 29.1218 and 35.2385 and 27.4797 and 47.1154 and 56.0608 and 47.0166
agonist response (Fig 2f), individual replicate values (hPAR2 [1]; [compound],M -7.38561): 86.365 and 78.1735 and 66.0975 and 85.2162 and 75.5111 and 91.061 and 20.8827 and 22.73 and 14.0732 and 38.9752 and 29.9961 and 25.8403
agonist response (Fig 2f), individual replicate values (hPAR2 [1]; [compound],M -7.86273): 50.0191 and 38.4004 and 28.0445 and 63.4341 and 52.1546 and 58.7101 and 8.067 and 10.1642 and 0.7234 and 8.708 and 10.6741 and 5.686
agonist response (Fig 2f), individual replicate values (hPAR2 [1]; [compound],M -8.33985): 11.2254 and 10.5953 and 6.644 and 26.1895
agonist response (Fig 2e), individual replicate values (hPAR2 [2]; [compound],M -4.52288): 92.0141 and 74.7053 and 111.675 and 66.5866 and 60.3473 and 74.0471 and 117.965 and 130.52 and 124.805 and 98.7887 and 171.327 and 138.91
agonist response (Fig 2e), individual replicate values (hPAR2 [2]; [compound],M -5): 145.403 and 95.3612 and 122.434 and 53.1755 and 72.071 and 69.3732 and 123.833 and 115.408 and 143.854 and 198.596 and 120.076 and 126.959
agonist response (Fig 2e), individual replicate values (hPAR2 [2]; [compound],M -5.47712): 102.451 and 94.8209 and 99.914 and 62.5677 and 62.1847 and 84.7772 and 121.954 and 124.064 and 131.389 and 108.103 and 101.197 and 120.75
agonist response (Fig 2e), individual replicate values (hPAR2 [2]; [compound],M -5.95424): 89.9122 and 82.9611 and 84.3447 and 63.5614 and 54.0303 and 47.0028 and 93.3928 and 116.239 and 97.5862 and 98.4234 and 105.569 and 117.075
agonist response (Fig 2e), individual replicate values (hPAR2 [2]; [compound],M -6.43136): 89.3258 and 69.9482 and 44.5682 and 54.9685 and 62.0293 and 44.3162 and 80.2501 and 88.0999 and 54.8467 and 72.3986 and 88.607 and 61.7832
agonist response (Fig 2e), individual replicate values (hPAR2 [2]; [compound],M -6.90849): 70.3304 and 41.0432 and 36.2531 and 47.5801 and 30.25 and 29.0399 and 34.5189 and 34.3783 and 18.7041 and 36.9798 and 32.4711 and 22.2209
agonist response (Fig 2e), individual replicate values (hPAR2 [2]; [compound],M -7.38561): 20.4269 and 21.9818 and 16.3418 and 12.8089 and 11.7486 and 24.5769 and 9.704 and 15.3673 and 6.674 and 12.0051 and 3.09 and 15.3723
agonist response (Fig 2e), individual replicate values (hPAR2 [2]; [compound],M -7.86273): 4.95 and -1.995 and 15.7225 and 4.505 and 8.124 and 3.783 and 3.311 and 7.198 and -0.6009 and -4.9 and 2.6 and 2.634

reduction in affinity in presence of saturating AZ8838 ([4]; SPR): 3 fold
residence time ([4]; SPR, apo-PAR2): about 2 min
ka ([4]; apo-PAR2, 30 °C): 1.1 ± 0.6 × 10^6 (n = 4) M^−1 s^−1
pKD ([4]; apo-PAR2, 30 °C): 7.96 ± 0.04 (n = 4)
residence time ([4]; apo-PAR2, 30 °C): 116 ± 68 (n = 4) s
SMILES: C[C@@H](C1CCCCC1)n1c(-c2cc3c(cc2Br)OCO3)nc2cc(C(=O)Nc3ccc(C#N)cc3)ccc21 [AZ3451]
